Laboratory results taken from US20230258642A1, “COMPOSITIONS AND METHODS FOR IDENTIFICATION OF MODULATORS OF RAS PROTEIN COMPLEXES” (QUANTA THERAPEUTICS, INC., priority 2020, published 2023).

Columns and labels:
[1] = biological target: T1, Annexin V (Homo sapiens, UniProt P08758); experiment: Annexin V counter-screen SHG assay on phosphatidyl serine surface; format: binding
T1 sequence (P08758 1-320): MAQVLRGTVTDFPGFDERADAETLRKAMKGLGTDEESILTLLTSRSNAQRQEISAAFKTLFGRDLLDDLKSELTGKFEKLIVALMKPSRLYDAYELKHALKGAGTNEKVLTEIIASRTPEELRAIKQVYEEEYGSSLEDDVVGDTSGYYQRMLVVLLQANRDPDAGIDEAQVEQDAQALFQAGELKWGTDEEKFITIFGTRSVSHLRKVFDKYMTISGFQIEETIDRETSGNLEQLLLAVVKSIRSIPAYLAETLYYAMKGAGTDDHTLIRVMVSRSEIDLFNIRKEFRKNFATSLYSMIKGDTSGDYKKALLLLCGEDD
From the text: Annexin V binds to phosphatidyl serine membrane like KRAS^G12D-FMe in a calcium-dependent manner. However, Annexin V is structurally unrelated to KRAS/RAF1 complex. Addition of EDTA, a chelation agent, results in >80% decrease in SHG signal due to loss of Annexin V protein from the phosphatidyl serine surface. […] This assay was established as a counter-screen assay to the KRAS^G12D-FMe+SH-active RAF1^RBDCRD interaction, allowing detection of false-positives due to metal chelation or non-specific protein binding.

[2] = biological target: T2, KRAS^G12D-FMe+RAF1^RBDCRD-SHG2 complex (Homo sapiens, UniProt P01116, G12D); experiment: SHG complex assay: KRAS^G12D-FMe + SH-active RAF1^RBDCRD complex tethered to a PS bilayer; format: binding; details: complex tethered overnight in the presence of 1 mM GDP
T2 construct: 1; farnesyl and carboxymethyl modification (FMe) at the C-terminal Cys
Description: Factors contributing towards maximizing the complex SHG signal compared to bilayer-tethered KRAS^G12D-FMe alone were further optimized in order to develop a robust screening assay that would allow the separation of real conformational modulators from the baseline signal noise. Accordingly, a pre-formed complex was tethered to the bilayer and the baseline SHG intensity of the complex was compared to each individual component.
In comparison, each protein component was incubated on the PS bilayer to make sure the SHG signal generated by the complex was distinct from any signal produced by the individual components (FIG. 3B). The PS bilayer alone produced a baseline SHG signal around 6000. […]
Since RAF1 binding to KRAS is nucleotide dependent, the SHG signal change was monitored in the presence of 10 mM EDTA and 1 mM GDP. […] The SHG response to this control reinforced that the detected complex signal behaves according to its characterized biology.
A beam from a Ti:S femtosecond laser is used as the fundamental according to procedures known to those skilled in the art. […] Second harmonic light generated by the surface is collected, filtered from the fundamental, and detected by a photomultiplier tube (PMT) according to procedures known to those skilled in the art. A baseline signal with declining intensity due to photobleaching is recorded. […]

## O=C(O)CN(CCN(CC(=O)O)CC(=O)O)CC(=O)O [EDTA]
[1]
  decrease in SHG signal (loss of Annexin V from phosphatidyl serine surface): > 80%

## Nc1nc2c(ncn2[C@@H]2O[C@H](COP(=O)(O)OP(=O)(O)O)[C@@H](O)[C@H]2O)c(=O)[nH]1 [GDP]
[2]
  complex SHG signal: no complex SHG signal was detected

## COc1ccc2c(c1)CN(C(=O)CCN1CCC(Cc3ccccc3)CC1)CCS2 [K201]
[1]
  SHG response upon addition to Annexin V: dose-dependent SHG response
